Test results published in patent publication US10526352B2, “Tricyclic benzoxaborole compounds and uses thereof” (GlaxoSmithKline Intellectual Property (No.2) Limited, priority 2013, dated 2020).

Tested on: M. tuberculosis clinical isolates
Assay: MIC against clinical strains (BACTEC MGIT 960 System)
Type: cell-based
Conditions: Mycobacterium tuberculosis
[1] = strain 123, resistant clinical isolate, resistance HSERZKTACp
[2] = strain 139, resistant clinical isolate, resistance HSERZKTACp
[3] = strain 141, resistant clinical isolate, resistance HRT
[4] = strain 167, resistant clinical isolate, resistance HSRZ
[5] = strain 175, resistant clinical isolate, resistance S
[6] = strain 198, resistant clinical isolate, resistance H
[7] = strain 242, resistant clinical isolate, resistance H
[8] = strain 330, resistant clinical isolate, resistance HSR (Tables 2B, 2D)
[9] = strain 1672, resistant clinical isolate, resistance HSRZ
[10] = strain 1819, resistant clinical isolate, resistance HSRZ

SMILES	MIC [1] [µM]	MIC [2] [µM]	MIC [3] [µM]	MIC [4] [µM]	MIC [5] [µM]	MIC [6] [µM]	MIC [7] [µM]	MIC [8] [µM]	MIC [9] [µM]	MIC [10] [µM]	also measured
Cl.NC[C@H]1OB2OCCOc3ccc(Br)c1c32 [Example 2, (S)-(3-bromo-7,8-dihydro-2H-1,6,9-trioxa-9a-borabenzo[cd]azulen-2-yl)methanamine hydrochloride]	0.08	0.08	0.08	0.08	0.08	0.08	0.08	0.08	0.08	0.04	
Cl.NC[C@H]1OB2OCCOc3ccc(Cl)c1c32 [Example 4, (S)-(3-chloro-7,8-dihydro-2H-1,6,9-trioxa-9a-borabenzo[cd]azulen-2-yl)methanamine hydrochloride]	0.16	0.08	0.08	0.08	0.08	0.08	0.08	0.08	0.08	≤ 0.02	MIC (strain 106, resistant clinical isolate, resistance HR): 0.16 µM; MIC (strain 192, resistant clinical isolate, resistance HS): 0.31 µM; MIC (strain 201, resistant clinical isolate, resistance HRE): 0.08 µM; MIC (strain 202, resistant clinical isolate, resistance S): 0.08 µM; MIC (strain 254, resistant clinical isolate, resistance H): 0.16 µM; MIC (strain 277, resistant clinical isolate, resistance H): 0.08 µM; MIC (strain 297, resistant clinical isolate, resistance HSR): 0.16 µM; MIC (strain 330, resistant clinical isolate, resistance HS): 0.08 µM; MIC (strain 330, resistant clinical isolate, resistance RSR): 0.04 µM; MIC (strain 409, resistant clinical isolate, resistance HR): 0.08 µM; MIC (strain 415, resistant clinical isolate, resistance HRT): 0.08 µM; MIC (strain 514, resistant clinical isolate, resistance HSRT): 0.08 µM; MIC (strain 562, resistant clinical isolate, resistance HSERZKTA): 0.08 µM; MIC (strain 605, resistant clinical isolate, resistance HSERZACp): 0.16 µM; MIC (strain 670, resistant clinical isolate, resistance HRZ): 0.04 µM; MIC (strain 709, resistant clinical isolate, resistance S): 0.08 µM; MIC (strain 732, resistant clinical isolate, resistance S): 0.08 µM; MIC (strain CR, resistant clinical isolate, resistance HSERZ): 0.31 µM
NC[C@H]1OB2OCCOc3ccc(Cl)c1c32 [Example G4-Cl]											MIC (for more than 85 clinical isolate strains of 97 tested (sensitive and resistant)): < 1 µM
